Like-named read-outs stand apart in the source and are kept apart here.
Tests used:
[1] = test system: STAR reaction (Nt.BstNBI nicking endonuclease, Bst X DNA polymerase; Chlamydia trachomatis cryptic plasmid target)
Method: The STAR mixture contained two primers, polymerase, and nicking enzyme (referenced above). Reactions were performed in a final volume of 25 μl, including 1.0 μM of the forward primer, 0.5 μM of the reverse primer, 0.25 μM molecular beacon, 10 μl STAR Master Mix and 5 μl DNA sample. STAR master mix contained the following reagents; 12 mM MgSO4, 90 mM Tris-HCl (pH 8.5), 300 μM each dNTPs, 20 mM (NH4)2SO4, 15 mM Na2SO4, 2 mM. DTT, 0.01% Triton X-100, 15 U nicking endonuclease, 60 U polymerase. […] The temperature of the reactions was controlled, with a relatively high initiation temperature followed by a gradual drop over time, for optimal STAR activity. The initiation phase, primarily involving polymerase activity, was at the elevated temperature of 60° C. for 15 seconds. […] Amplification and STAR product detection were performed with the Agilent Mx3005P qPCR apparatus (Agilent).

[2] = test system: Nb.BsmI nicking endonuclease; conditions: 20 mM Rb2SO4 vs control; STAR temperature profile; average of six replicates
From the text: The modified NAA was run with and without rubidium using the following conditions.
The Nb.BsmI recognition sequence is GAATG_CN. (The underscore indicates the nick site). The oligonucleotide contains self-complementary sequences and forms a molecular beacon-like probe in solution. The probe has a nicking site for nicking endonuclease activity and a 3′ quencher. Upstream of the nicking binding site is a 5′ fluorophore. When in solution a complex is formed that completes a nicking binding site allowing for the nicking endonuclease to nick. Nb.BsmI is a bottom cutter and therefore will cut on the opposite strand of the nicking binding site. The oligonucleotide quencher 3′ of the nick site, following a nick by a nicking endonuclease, now has a low melting temperature. Because the reaction is performed above this melting temperature, the shortened fragment containing the quencher is released from the complex, generating fluorescence.
The basic NAA mixture contained the probe oligo (DLPFQ) with a 5′-FAM modification and a 3′-BHQ1 modification which folds on itself, and a nicking endonuclease (referenced above). […] The reactions were performed in a final volume of 25 μl, including different concentrations of DLPFQ depending on the nicking enzyme used, and 1×NAA Master Mix. […] Each reaction assessed kinetics, enzyme performance, and signal fluorescence.

Bst X DNA polymerase = conditions: 15 mM Rb2SO4 vs no added rubidium; STAR temperature profile; six replicates
From the text: The NEF has a 5′ fluorophore, POQ has a 3′ quenching moiety that absorbs the photons released by the 5′ template oligo fluorophore. The PO serves as the initiation site for a strand displacement polymerase to extend and displace the quenching oligo allowing for fluorescence to be generated due to the quenching oligo no longer being in proximity to the template oligo.
The basic PAA mixture contains a template oligo (NEF) with a 5′-FAM modification, a priming oligo (PO) which anneals to the template's 3-end, a quenching oligo (POQ) with a 3′-BHQ1 modification which anneals to the template's 5′-end, and a polymerase (referenced above). The reactions were performed in a final volume of 25 μl, including 0.2 μM NEF, 0.3 μM PO, 0.7 μM POQ, and 1×PAA Master Mix. At a 1× concentration, the PAA master mix contained the following reagents; 12.5 mM MgSO4, 90 mM Tris-HCl (pH 8.5), 300 μM each dNTPs, 15 mM NH4CH3CO2, 15 mM Na2SO4, 5 mM DTT, 0.2 mg/ml BSA, 0.02% Triton X-100, 15 mM Rb2SO4, 10 mM L-Threonine, and 0.03 U/μl polymerase. […] The PAA was performed with the Agilent Mx3005P qPCR apparatus (Agilent). […] Each reaction assessed amplification kinetics, enzyme performance, and signal fluorescence.

[3] = test system: isothermal amplification reaction (nicking endonuclease, polymerase; primers of Example 1)
Method: The basic mixture contains two primers, polymerase, and nicking enzyme (referenced above). […] The reactions were performed in a final volume of 25 μM, including 1.0 μM of the forward primer, 0.5 μM of the reverse primer, 0.25 μM molecular beacon, 10 μM Master Mix and 5 μl DNA sample. The master mix contained the following reagents; 12.5 mM MgSO4, 90 mM Tris-HCl (pH 8.5), 300 μM each dNTPs, 40 mM NH4OAc, 15 mM Na2SO4, 2 mM DTT, 0.01% Triton X-100, 15U nicking endonuclease, 60 U polymerase. […] Amplification and product detection were performed with the Agilent Mx3005P qPCR apparatus (Agilent).

[4] = test system: Nt.BstNBI nicking endonuclease; conditions: 15 mM Rb2SO4 vs no rubidium; STAR temperature profile; six replicates
Method: The template oligo has a nicking site for nicking endonuclease activity and downstream a 3′ quencher. The priming oligo has the complementary nicking site sequence and a 5′ fluorophore. When in solution the two form a complex that completes a nicking binding site allowing for the nicking endonuclease to cut. The oligonucleotide quencher 5′ of the nick site, following a nick by a nicking endonuclease, now has a low melting temperature. Because the reaction is performed above this melting temperature, the shortened fragment containing the quencher is released from the complex generating fluorescence.
The basic NAA mixture contained the template oligo (NEQ) with a 3′ modification, and the priming oligo (POF) with a 5′-FAM modification which anneals to the template, and a nicking endonuclease (referenced above). The reactions were performed in a final volume of 25 μl, including 1.3 μM NEQ, 1.6 μM POE, and 1×NAA Master Mix. At a 1× concentration, the NAA master mix contained the following reagents; 12.5 mM MgSO4, 90 mM Tris-HCl (pH 8.5), 15 mM NH4CH3CO2, 15 mM Na2SO4, 5 mM DTT, 0.2 mg/ml BSA, 0.02% Triton X-100, 15 mM Rb2SO4, 10 mM L-Threonine, and 0.008 U/μl nicking endonuclease. […] The NAA was performed with the Agilent Mx3005P qPCR apparatus (Agilent). […] Each reaction assessed amplification kinetics, enzyme performance, and signal fluorescence.

[5] = test system: Nb.BbvCI nicking endonuclease; assay: Nicking Enzyme Activity Assay (NAA) with Nb.BbvCI under isothermal condition; type: biochemical; conditions: 40 ml RbCl (so in the source), 1x CutSmart Buffer, isothermal 50 °C; four replicates vs control
Method: The assay comprises use of the following oligonucleotide probe (DLPFQ) (SEQ ID NO: 10 5′/56-FAM/[…].[…]/3BHQ_1/-3′). The oligonucleotide forms a molecular beacon-like probe in solution. […] Upstream of the nicking enzyme binding site is a 5′ fluorophore.
The reactions are run using an isothermal temperature profile, 50° C. […] Each reaction assessed kinetics, enzyme performance, and signal fluorescence.

CC(=O)[O-].[K+] [potassium acetate]
effect on STAR (ion replacement) ([1]; salts replaced in buffer, various concentrations): neither of which improved STAR

O=S(=O)([O-])[O-].[Rb+].[Rb+] [rubidium sulfate]
nicking enzyme activity (fluorescence) [2]: increases the activity of this other nicking endonuclease | grouping of replicate sample results in STAR ([1]; 50 mM rubidium sulfate vs control group): more tightly grouped than with the control group | effect on STAR amplification ([1]; 50 mM rubidium sulfate vs no rubidium control): detrimental to amplification, slowing the reaction | effect on STAR reactions ([1]; 10 to 20 mM rubidium sulphate vs no rubidium control, 100 copies target): improved STAR reactions | polymerase activity (fluorescence) (Bst X DNA polymerase): does not change the activity of the polymerase in any significant manner | performance of 10 copy isothermal reaction ([3]; 15 mM of rubidium sulfate (so in the source), compared with 100 copy reaction without rubidium sulfate): made the 10 copy reaction perform similar to the 100 copy reaction without rubidium sulfate | effect on isothermal amplification reaction ([3]; 20 mM rubidium sulfate vs without, 100 and 10 copies template, average of 4 replicates): improves the isothermal reaction | tightness of replicates in isothermal amplification ([3]; with vs without rubidium, data not shown): tighter than without rubidium | nicking enzyme activity (fluorescence) [4]: significantly increased the activity of the nicking enzyme

CC(=O)[O-].CC(=O)[O-].CC(=O)[O-].[Sc+3] [scandium acetate]
effect on STAR (ion replacement) ([1]; all concentrations): fully inhibited the reaction

[Cl-].[Rb+] [rubidium chloride]
nicking enzyme activity (fluorescence) [5]: increases the activity of Nb.BbvCI nicking endonuclease

CC(=O)[O-].CC(=O)[O-].[Sr+2] [strontium acetate]
effect on STAR (ion replacement) ([1]; 10 mM): possibly slightly slowed the reaction | effect on STAR (ion replacement) ([1]; 20 and 50 mM): fully inhibited the reaction

Reference: US12480155B2, “Nicking enzymes” (LumiraDx UK Ltd., priority 2019, dated 2025)
